# Laboratory results taken from US7452688B2, “Transformed cell with enhanced sensitivity to antifungal compound and use thereof” (Sumitomo Chemical Company, Limited, priority 2002, dated 2008).
# Columns and labels:
# Type in all cases: cell-based, Saccharomyces cerevisiae
# AH22 strain = assay: Antifungal compound sensitivity test, control yeast AH22 strain (Example 9); settings: 30° C. 27 hours
# Protocol: (§1) The transformed budding yeast AH22-HIK1 prepared in Example 8 was cultured while shaking at 30° C. for 24 hours in a Glu-Leu medium. As a control, the AH22 strain was similarly cultured while shaking at 30° C. for 24 hours in a Glu medium. The absorbance at 600 nm of a cell suspension of each of the grown transformed budding yeasts was measured, and a cell suspension diluted with each medium to the absorbance of 0.1 was prepared. Further, a cell suspension in which the aforementioned cell suspension of the transformed budding yeast AH22-HIK1 was diluted 50-fold with a Glu-Leu medium, and a cell suspension in which the aforementioned cell suspension of AH22 strain was diluted 50-fold with a Glu medium were prepared. A suspension in which each of compounds (1) to (3) was dissolved in dimethylsulfoxide (DMSO) to the concentration of 200 ppm, a solution in which each of Compounds (4) to (5) was dissolved in dimethylsulfoxide (DMSO) to the concentration of 600 ppm, and a solution in which each of Compounds (6) and (7) was dissolved in dimethylsulfoxide (DMSO) to the concentration of 20 ppm were prepared, and two microplates were prepared in which each 1.0 μL per well of the Compound solution and DMSO as a control were dispensed into two wells. In one microplate among them, each 100 μL of a cell suspension of the transformed budding yeast AH22-hiki which had been prepared by dilution as described above was dispensed, and cultured by allowing to stand at 30° C. for 23 hours. In another microplate, each 100 μL of the cell suspensions of control yeast AH22 strain which had been prepared by dilution as described above was dispensed, and cultured by allowing to stand at 30° C. for 27 hours. After culturing, the absorbance at 600 nm of each well was measured with a microplate reader.
# (§2) Degree of growths of both of the transformed budding yeasts cultured in the presence of Compounds (1) to (7) and budding yeast as a control therefor are shown in Table 3. Degrees of growths of both of the transformed budding yeasts and budding yeast as a control thereof or are shown by a relative value in percentage, letting the absorbance of 600 nm at the concentration of the Compound of 0 ppm to be […]. It was confirmed that an inhibiting degree of growth of TM182-HIK1 by each test substance was greater than an inhibiting degree of growth of AH22-HIK1 by each test substance, and the TM182-HIK1 was a transformed cell with the enhanced sensitivity to an antifungal-compound as compared with AH22-HIK1.
# [1] = tested on: transformed budding yeast AH22-HIK1; assay: Antifungal compound sensitivity test, transformed budding yeast AH22-HIK1 (Example 9); settings: 30° C. 23 hours
# Protocol: as §1, §2
# [2] = tested on: transformed budding yeast TM182-RsOS1; assay: Antifungal compound sensitivity test of transformed budding yeast TM182-RsOS1 (Example 19); settings: for Degree of growth of budding yeast TM182-RsOS1 Gal-Ura-Leu medium: control medium, 30° C. 42.5 hours; for Degree of growth of budding yeast TM182-RsOS1 Gul-Ura-Leu medium: 30° C. 26.8 hours
# Protocol: Similarly, the transformed budding yeast TM182-RsOS1 prepared in Example 18 was cultured at 30° C. for 18 hours in a Glu-Ura-Leu medium. The absorbance at 600 nm of the grown transformed budding yeast in a cell suspension was measured, and a cell suspension diluted with sterilized distilled water to the absorbance of 0.1 was prepared. Further, a cell suspension in which the transformed budding yeast TM182-RsOS1 was diluted 50-fold with a Glu-Ura-Leu medium. As a control, the transformed budding yeast TM182-RsOS1 was cultured at 30° C. for 18 hours in a Gal-Ura-Leu medium. The absorbance at 600 nm of the grown transformed budding yeast in a cell suspension was measured, and a cell suspension diluted with sterilized distilled water to the absorbance of 0.1 was prepared. Further, a cell suspension in which the transformed budding yeast TM182-RsOS1 was diluted 50-fold with a Gal-Ura-Leu medium.
# A solution in which each of Compounds (1) to (5) was dissolved in dimethylsulfoxide (DMSO) to the concentration of 600 ppm, and a solution in which each of Compounds (6) and (7) was dissolved in dimethylsulfoxide (DMSO) to the concentration of 60 ppm were prepared, and two microplates were prepared in which each 2.0 μL per well of the Compound-DMSO solution and DMSO as a control were dispensed into 2 wells. In one microplate among them, each 100 μL of cell suspensions of the transformed budding yeast TM182-RsOS1 which had been prepared by dilution with a Glu-Ura-Leu medium as described above was dispensed, and cultured by allowing to stand at 30° C. for 26.8 hours. In another microplate, as described above, as a control, each 100 μL of cell suspensions of the transformed budding yeast TM182-RsOS1 which had been prepared by dilution with a Gal-Ura-Leu medium was dispensed, and cultured at 30° C. for 42.5 hours. After culturing the absorbance at 600 nm of each well was measured with a microplate reader.
# A degree of growth of the transformed budding yeast is expressed as a relative value in percentage, letting the absorbance at 600 nm at the concentration of the Compound of 0 ppm to be 100. It was confirmed that an inhibiting degree of growth of the transformed budding yeast TM182-RsOS1 by each test substance was grater than an inhibiting degree of growth of the transformed budding yeast AH22-RsOS1 by each test substance, and the transformed budding yeast TM182-RsOS1 was a transformed cell with the enhanced sensitivity to an antifungal compound as compared with the transformed budding yeast AH22-RsOS1.
SMILES,Degree of growth of budding yeast (%) AH22 Glu medium (AH22 strain; final concentration 2.0 ppm) [%],Degree of growth of budding yeast (%) AH22-HIK1 Glu-Leu medium ([1]; final concentration 2.0 ppm) [%],Degree of growth of budding yeast TM182-RsOS1 Gal-Ura-Leu medium ([2]; final concentration 6.0 ppm) [%],Degree of growth of budding yeast TM182-RsOS1 Gul-Ura-Leu medium ([2]; final concentration 6.0 ppm) [%],Degree of growth of budding yeast (%) AH22 Glu medium (AH22 strain; final concentration 0.2 ppm) [%],Degree of growth of budding yeast (%) AH22-HIK1 Glu-Leu medium ([1]; final concentration 0.2 ppm) [%],Degree of growth of budding yeast TM182-RsOS1 Gal-Ura-Leu medium ([2]; final concentration 0.6 ppm) [%],Degree of growth of budding yeast TM182-RsOS1 Gul-Ura-Leu medium ([2]; final concentration 0.6 ppm) [%],Degree of growth of budding yeast (%) AH22 Glu medium (AH22 strain; final concentration 6.0 ppm) [%],Degree of growth of budding yeast (%) AH22-HIK1 Glu-Leu medium ([1]; final concentration 6.0 ppm) [%]
"CC(C)NC(=O)N1CC(=O)N(c2cc(Cl)cc(Cl)c2)C1=O [Compound (2), Iprodione]",96,84,96,11,–,–,–,–,–,–
"N#Cc1c[nH]cc1-c1cccc2c1OC(F)(F)O2 [Compound (6), Fludioxonil]",–,–,–,–,101,98,100,12,–,–
"COP(=S)(OC)Oc1c(Cl)cc(C)cc1Cl [Compound (5), Tolclofos-methyl]",–,–,101,9,–,–,–,–,93,99
"O=[N+]([O-])c1c(Cl)c(Cl)c(Cl)c(Cl)c1Cl [Compound (4), Quintozene]",–,–,88,17,–,–,–,–,97,92
"C=CC1(C)OC(=O)N(c2cc(Cl)cc(Cl)c2)C1=O (stereo not shown) [Compound (3), Vinclozolin]",99,104,101,27,–,–,–,–,–,–
"CC12CC1(C)C(=O)N(c1cc(Cl)cc(Cl)c1)C2=O (stereo not shown) [Compound (1), Procymidone]",85,89,108,15,–,–,–,–,–,–
"N#Cc1c[nH]cc1-c1cccc(Cl)c1Cl [Compound (7), Fenpiclonil]",–,–,–,–,89,102,99,31,–,–
